Assay results: US10512600B2, “RNA complexes that inhibit melanin production” (OliX Pharmaceuticals, Inc., priority 2015, dated 2019)
Like-named read-outs stand apart in the source and are kept apart here. Oligonucleotides are written 5' to 3', each unit as a sugar letter and its base; * is a phosphorothioate linkage, no mark a phosphodiester; rarer units and linkages stand in square brackets, end groups in braces. Plain capitals give the bases only. {Chol} = cholesterol conjugate; m = 2'-O-methyl; r = 2'-OH (RNA)

Experiments:
[1] = test system: HaCaT cells; assay: Cytotoxicity (LDH, CytoTox96) and cell viability (CCK-8) in HaCaT cells; conditions: 24 hours, LDH and CCK-8 assays, FIG. 6
Method: (§5) One day before treatment with cp-asiRNA(4)-1, 5.0×10^3MNT-1 cells or 1.0×10^4 HaCaT cells were seeded into 96 well plates. Immediately before treatment, the cells were washed with 1×DPBS buffer (Gibco), and then cultured in the presence of 1 μM or 3 μM of cp-asiRNATYR(4)-1 in OPTI-MEM buffer for 24 hours, at which point the cytotoxicity level was measured using a CytoTox96 Non-Radio Cytotoxicity assay (Promega) according to manufacturer's instructions. The media was then replaced with the serum-containing media and cell viability was measured using a cell counting kit-8 (Enzo) according to manufacturer's instructions.

[2] = test system: MNT-1 cells; assay: Melanin content assay in treated MNT-1 cells; assay type: cell-based, human; conditions: 1 μM, 72 hours
Method: (§1) MNT-1 cells were cultured in Minimum Essential Media (Welgene) containing 20% fetal bovine serum (Gibco), 100 μg/ml penicillin/streptomycin, 10% 200 mM HEPES (Welgene) and 10% Dulbecco's modified Eagle's medium (Welgene). One day prior to treatment, 6.5×10^4MNT-1 cells were seeded in 12-well plates.
(§2) MNT-1 cells treated with cp-asiTYR(4)-1 as described above were tested for melanin content. After 72 hours of incubation in the presence of cp-asiTYR, the MNT-1 cells were collected, lysed with RIPA buffer (GE) and centrifuged at 13000 rpm. The resulting melanin pellet was dissolved in 100 μL of 1N NaOH (containing 10% DMSO) at 85° C. for 15 minutes and light absorption and melanin production were measured.
as §2, with “cp-asiTYR(4) 21AS-1 or cp-asiTYR(4) 19AS-5” for “cp-asiTYR(4)-1”
MNT-1 cells were cultured in Minimum Essential Media (Welgene) containing 20% fetal bovine serum (Gibco), 100 μg/ml penicillin/streptomycin, 10% 200 mM HEPES (Welgene) and 10% Dulbecco's modified Eagle's medium (Welgene). One day prior to treatment, 6.5×10^4MNT-1 cells were seeded in 12-well plates. Four hours prior to treatment, the cell media was replaced with 900 μL of FBS-containing media. The PF6-complexed asiRNA or lasiRNA was added to the cells and the cells were incubated for 24 hours, at which point the media was replaced. Tyrosinase mRNA levels were measured using real-time RT-PCR 24 hours after media replacement.
To test the treated MNT-1 cells for tyrosinase protein expression and melanin production, western blot and melanin content assays were performed as described above 48 hours after media replacement.

[3] = test system: tyrosinase protein; assay: Western blot of tyrosinase protein in reconstructed skin model MEL-300-B; assay type: cell-based; conditions: 5 μM every day for 13 days, day 14, FIG. 14e
Method: (§3) Tyrosinase expression and melanin level was analyzed in an cp-asiTYR#4-1 treated 3-D skin model. MEL-300-B (MatTek), a reconstructed skin model, was used in this study. MEL-300-B was stabilized in EPI-100-NMM-113 media 24 hours before treatment with cp-asiTYR#4-1. […] MEL-300-B samples were treated with cp-asiTYR#4-1 every day for 13 days (final concentration=5 μM) by adding cp-asiTYR#4-1 directly to the media. As a control, other MEL-300-B samples were treated with kojic acid (Sigma, 2% final) as depicted in FIG. 14(a). The samples were harvested at day 14 and the melanocytes in the sample were analyzed using light microscopy. […] Melanin level in each sample was analyzed using Fontana-Massons staining.
Protein level analysis was conducted as using western blot. Harvested samples in RIPA buffer (GE) were homogenized by using homogenizer (IKA) and protein from the each sample was obtained. Fifteen micrograms of the total protein extract were loaded onto a 12% SDS-PAGE gel and electrophoresed at 120 V. After electrophoresis, the proteins were transferred to PVDF membrane (Bio-rad) that had been previously activated with methanol (Merck) for 1 hour at 300 mA. The membrane was blocked for 1 hour at the room temperature with 5% skim milk (Seoul Milk) and then incubated overnight at 4° C. in 5% skim milk containing anti-tyrosinase antibody (Santa Cruz) and anti-β-actin antibody (Santa Cruz). […]

[4] = test system: MNT-1 cells; assay: Cytotoxicity (LDH, CytoTox96) and cell viability (CCK-8) in MNT-1 cells; assay type: cell-based, human; conditions: 24 hours, LDH and CCK-8 assays, FIG. 6
Method: as §5

[5] = test system: MEL-300-B reconstructed skin model; assay: Fontana-Massons staining for melanin in reconstructed skin model MEL-300-B; assay type: cell-based; conditions: 5 μM every day for 13 days, day 14, Fontana-Massons staining
Method: as §3

[6] = test system: tyrosinase mRNA; assay: Tyrosinase mRNA level in reconstructed skin model MEL-300-B by real-time PCR; assay type: cell-based; conditions: 5 μM every day for 13 days, day 14, FIG. 14(d)
Method: as §3
In order to analyze mRNA level at day 14, samples were harvested in Isol-RNA lysis reagent (5PRIME) and homogenized by using a homogenizer (IKA). Total RNA from the each sample was extracted. For each sample, 500 ng of the extracted RNA was used for cDNA synthesis using the high-capacity cDNA reverse transcription kit (Applied Biosystems) according to the manufacturer's instructions. Quantitative real-time PCR was then performed using the StepOne real-time PCR system (Applied Biosystems). Amplification of the tyrosinase cDNA was detected using a power SYBR green PCR master Mix (Applied Biosystems). GAPDH was amplified as an internal control.

[7] = test system: MNT-1 cells; assay: Color change (lightening) of MNT-1 cell pellets; assay type: cell-based, human; conditions: 1 μM or 3 μM, 72 hours, FIG. 5
Method: as §1
After 72 hours, cells were pelleted and the color change of the cells was observed.

[8] = test system: MEL-300-B reconstructed skin model; assay: Melanin content assay in reconstructed skin model MEL-300-B; assay type: cell-based; conditions: 5 μM every day for 13 days, day 14, FIG. 14(f)
Method: as §3
To test melanin content, samples were harvested at day 14, lysed with RIPA buffer (GE) and centrifuged at 13000 rpm. The resulting pellet was dissolved in 100 μL of 1N NaOH (containing 10% DMSO) at 85° C. for 15 minutes and light absorption and melanin production were measured.

[9] = test system: tyrosinase protein; assay: Western blot of tyrosinase protein expression in treated MNT-1 cells; assay type: cell-based, human
Method: as §1
(§4) After 72 hours of cp-asiTYR(4)-1 incubation, the level of tyrosinase protein expression was determined via western blot. Briefly, the treated MNT-1 cells were lysed with RIPA buffer (GE). Fifteen μg of the total protein extract were loaded onto a 12% SDS-PAGE gel and electrophoresed at 120 V. After electrophoresis, the proteins were transferred to PVDF membrane (Bio-rad) already activated by methanol (Merck) for 1 hour at 300 mA. The membrane was blocked for 1 hour at the room temperature with 5% skim milk (Seoul Milk) and then incubated overnight at 4° C. in 5% skim milk containing anti-tyrosinase antibody (Santa Cruz) and anti-β-actin antibody (Santa Cruz). The membrane was then washed with 1×TBST for 10 minutes three times and was incubated for 1 hour at the room temperature in 5% skim milk with HRP-conjugated secondary antibody. The membrane was washed with 1×TBST for 10 minutes and treated with 1×ECL for 1 minute. The tyrosinase and β-actin bands were then imaged using a Chemidoc instrument (Bio-rad).
as §4, with “The level” for “After 72 hours of cp-asiTYR(4)-1 incubation, the level”, “expression by MNT-1 cells after treatment with 1 μM and 3 μM cp-asiRNAs” for “expression”, “the transfected” for “the treated”
The level of tyrosinase protein expression by MNT-1 cells after treatment with 1 μM, 0.6 μM, 0.3 μM and 0.1 μM cp-asiRNAs was determined via western blot. Briefly, the transfected MNT-1 cells were lysed with RIPA buffer (GE). […]

[10] = test system: HaCaT cells
Method: as §5

[11] = test system: MEL-300-B reconstructed skin model; assay: Light microscopy of melanocytes in reconstructed skin model MEL-300-B; assay type: cell-based; conditions: 5 μM every day for 13 days, day 14, light microscopy
Method: as §3

OC[C@H]1O[C@@H](Oc2ccc(O)cc2)[C@H](O)[C@@H](O)[C@@H]1O [arbutin]
cytotoxicity / cell viability [1]: cytotoxicity was observed

cp-asiTYR(4)-1: S: GCUGACAGGAGAUG*A*A*cholesterol (SEQ ID NO: 131); AS: UUCAUCUCCUGUCAGCU*U*C*U*G (SEQ ID NO: 132) (sense GCUGACAGGAGAUGAA; antisense UUCAUCUCCUGUCAGCUUCUG; siRNA; sense: linkages o13 s2 (s phosphorothioate, o phosphodiester), 3' *{Chol}, sugars by position and methylation of C not given here; antisense: linkages o16 s4 (s phosphorothioate, o phosphodiester), sugars by position and methylation of C not given here)
inhibition in melanin production compared with hydroquinone and arbutin ([2]; FIG. 4): higher than when treated with compounds commonly used for melanin production, including hydroquinone (20 μM) and arbutin (2 mM) | inhibition in melanin production ([2]; FIG. 9): ~50% | inhibition in melanin production compared with arbutin ([2]; FIG. 9): higher than the inhibition shown in MNT-1 cells treated with 2 mM arbutin | inhibition in melanin production ([2]; without transfection vehicle, FIG. 4): greater than 60% | tyrosinase protein level [3]: potent knockdown of tyrosinase protein | cytotoxicity / cell viability [4]: no cytotoxicity or loss of cell viability was observed | level of melanin [5]: reduced the level of melanin | level of tyrosinase mRNA [6]: reduced the level of tyrosinase mRNA | color of treated cells [7]: lighter than untreated MNT-1 control cells (NT), hydroquinone treated cells and arbutin treated cells | melanin level (melanin content) [8]: reduced melanin level | tyrosinase protein inhibition ([9]; 1 μM or 3 μM, 72 hours, without transfection vehicle, FIG. 3): ≥ 70% | relative inhibitory activity on tyrosinase protein ([9]; 1 μM to 0.1 μM, FIG. 10): slightly higher inhibitory activity than cp-asiTYR(4) 19AS-7 | tyrosinase inhibition ability compared with other tyrosinase inhibitors ([9]; 72 hours, western blot, FIG. 3): higher efficiency in the tyrosinase inhibition ability than other tyrosinase inhibitors such as Hydroquinone and Arbutin | cytotoxicity / cell viability [10]: no cytotoxicity or loss of cell viability was observed | level of melanocytes [11]: reduced the level of melanocytes

Oc1ccc(O)cc1 [hydroquinone]
cytotoxicity / cell viability [1]: cytotoxicity was observed

cp-asiTYR(4) 19AS-5: S: GCUGACAGGAGAUG*A*A*cholesterol (SEQ ID NO: 131); AS: UUCAUCUCCUGUCAG*C*mU*mU*mC (SEQ ID NO: 160) (sense rGrCrUrGrArCrArGrGrArGrArUrG*rA*rA*{Chol}; antisense rUrUrCrArUrCrUrCrCrUrGrUrCrArG*rC*mU*mU*mC; siRNA)
inhibition in melanin production ([2]; FIG. 9): ~50% | inhibition in melanin production compared with arbutin ([2]; FIG. 9): higher than the inhibition shown in MNT-1 cells treated with 2 mM arbutin | relative inhibitory activity on tyrosinase protein ([9]; 1 μM and 3 μM, FIG. 8): slightly higher inhibitory activity than cp-asiTYR(4) 21AS-1
